pIC50: −log10 of the molar value.
Assays:
[1] = test system: LNCaP cells; test: Anti-proliferative activity on LNCaP in complete medium; assay type: cell-based; details: Homo sapiens, 144 h, complete medium, 144 h incubation, Cell-Titer-Glow, read-out: IC50 on the LNCaP cells in culture (inhibition of cell proliferation by 50%)
Description: The anti-proliferative activity of the compounds of the present invention is determined on LNCaP in complete medium by applying the following experimental procedure:
The LNCaP cell type (ATCC, 1740) originates from a prostate carcinoma. This line expresses the androgen receptor and is hormone-dependent.
Maintenance of the LNCaP line is carried out in complete culture medium: RPMI, 10% of fetal calf serum, 2 mM glutamine, 100 U/ml penicillin, 0.1 mg/ml of streptomycin and 0.01M HEPES, 1 mM sodium pyruvate, […]. • Seeding the plates:
The LNCaP line is seeded at 20,000 cells/well in 90 μl of complete medium in 96-well plates coated with poly-D-lysine (Biocoat, Costar). • Treatment of the cells: 24 h after the seeding, the cells are treated with 10 μl/well of compound diluted in the culture medium. The concentrations used are the following: 1 nM/10/30/100/300/1000/3000/10,000 nM. The cells are incubated for 144 h at 37° C., 5% CO2. • Reading: After incubation for 6 days, cell proliferation was determined by Cell-Titer-Glow (CTG) Luminescent Cell Viability Assay. • Results: The experiments are carried out in duplicate and the best compounds are tested twice. […] Anti-Proliferative Activity on DU145 in Complete Medium

[2] = test system: DU145 cells; test: Anti-proliferative activity on DU145 in complete medium; assay type: cell-based; details: DU145 (no androgen receptor), 144 h, up to 10,000 nM, Cell-Titer-Glow
Description: It is used to evaluate the selectivity of the compounds for androgen receptor expressing cells. No activity of the compounds is expected. • The cells of the DU145 line (ATCC HTB-81) are seeded at 800 cells/well in 90 μl of complete medium in 96-well plates coated with poly-D-lysine (Biocoat, Costar). • Treatment of the cells: 24 h after the seeding, the cells are treated with 10 μl/well of compound diluted in the culture medium. The concentrations used are the following: 1 nM/10/30/100/300/1000/3000/10,000 nM. The cells are incubated for 144 h at 37° C., 5% CO2. • Reading: After incubation for 6 days, cell proliferation was determined by Cell-Titer-Glow (CTG) Luminescent Cell Viability Assay • Results: The experiments are carried out in duplicate and the best compounds are tested twice. A concentration value inhibiting the cell proliferation by 50% (IC50) is calculated.

IC50 on DU145 cells (anti-proliferative effect) [2]	Structure (SMILES)	pIC50 [1]
no measurable IC50	CC1(C)C(=O)N(c2ccc(S(C)(=O)=O)c(C(F)(F)F)c2)C(=O)N1C/C=C\Cn1cc(-c2ccc(C#N)c(C(F)(F)F)c2)cn1 [Example 2, (Z)-4-(1-(4-(5,5-dimethyl-3-(4-(methylsulfonyl)-3-(trifluoromethyl)phenyl)-2,4-dioxoimidazolidin-1-yl)but-2-en-1-yl)-1H-pyrazol-4-yl)-2-(trifluoromethyl)benzonitrile]	–
–	CC1(C)C(=O)N(c2ccc(C#N)c(C(F)(F)F)c2)C(=O)N1C/C=C\Cn1cc(-c2ccc(C#N)c(C(F)(F)F)c2)nn1 [Example 22, (Z)-4-(3-(4-(4-(4-cyano-3-(trifluoromethyl)phenyl)-1H-1,2,3-triazol-1-yl)but-2-en-1-yl)-4,4-dimethyl-2,5-dioxoimidazolidin-1-yl)-2-(trifluoromethyl)benzonitrile]	> 5.82
no measurable IC50	CC1(C)CN(c2ccc(S(C)(=O)=O)c(C(F)(F)F)c2)C(=O)N1C/C=C\CN1C(=O)N(c2ccc(S(C)(=O)=O)c(Cl)c2)C(=O)C1(C)C [Example 8, (Z)-3-(3-chloro-4-(methylsulfonyl)phenyl)-1-(4-(5,5-dimethyl-3-(4-(methylsulfonyl)-3-(trifluoromethyl)phenyl)-2-oxoimidazolidin-1-yl)but-2-en-1-yl)-5,5-dimethylimidazolidine-2,4-dione]	–
no measurable IC50	CC1(C)C(=O)N(c2ccc(S(C)(=O)=O)c(Cl)c2)C(=O)N1C/C=C\CN1CCC(O)(c2ccc(C#N)c(C(F)(F)F)c2)C1 (stereo not shown) [Example 16, (Z)-4-(1-(4-(3-(3-chloro-4-(methylsulfonyl)phenyl)-5,5-dimethyl-2,4-dioxoimidazolidin-1-yl)but-2-en-1-yl)-3-hydroxypyrrolidin-3-yl)-2-(trifluoromethyl)benzonitrile]	> 5.82
–	CC1(C)C(=O)N(c2ccc(C#N)c(C(F)(F)F)c2)C(=O)N1C/C=C\Cn1cnc(-c2ccc(S(C)(=O)=O)c(C(F)(F)F)c2)c1 [Example 18, (Z)-4-(4,4-dimethyl-3-(4-(4-(4-(methylsulfonyl)-3-(trifluoromethyl)phenyl)-1H-imidazol-1-yl)but-2-en-1-yl)-2,5-dioxoimidazolidin-1-yl)-2-(trifluoromethyl)benzonitrile]	> 5.82
–	CC1(C)C(=O)N(c2ccc(C#N)c(C(F)(F)F)c2)C(=O)N1C/C=C\Cn1cc(-c2ccccc2)nn1 [Example 19, (Z)-4-(4,4-dimethyl-2,5-dioxo-3-(4-(4-phenyl-1H-1,2,3-triazol-1-yl)but-2-en-1-yl)imidazolidin-1-yl)-2-(trifluoromethyl)benzonitrile]	> 5.82

Structure (SMILES)	IC50 on DU145 cells (anti-proliferative effect) [2]	pIC50 [1]
CC1(C)CN(c2ccc(S(C)(=O)=O)c(C(F)(F)F)c2)C(=O)N1C/C=C\CN1C(=O)N(c2ccc(C#N)c(C(F)(F)F)c2)C(=O)C1(C)C [Example 7, (Z)-4-(3-(4-(5,5-dimethyl-3-(4-(methylsulfonyl)-3-(trifluoromethyl)phenyl)-2-oxoimidazolidin-1-yl)but-2-en-1-yl)-4,4-dimethyl-2,5-dioxoimidazolidin-1-yl)-2-(trifluoromethyl)benzonitrile]	no measurable IC50	> 5.82
CC1(C)C(=O)N(c2ccc(C#N)c(C(F)(F)F)c2)C(=O)N1C/C=C\Cn1cc(-c2ccc(C#N)c(C(F)(F)F)c2)cn1 [Example 1, (Z)-4-(3-(4-(4-(4-cyano-3-(trifluoromethyl)phenyl)-1H-pyrazol-1-yl)but-2-en-1-yl)-4,4-dimethyl-2,5-dioxoimidazolidin-1-yl)-2-(trifluoromethyl)benzonitrile]	no measurable IC50	–

Reference: patent publication US9975880B2, “Imidazolidine-2,4-dione dervatives” (IPSEN PHARMA S.A.S., priority 2013, dated 2018)
